#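 Where inhibition never reached the appropriate level, the endpoint shown equals the highest concentration tested. Otherwise, values were interpolated linearly from a five-concentration, 48-hour dose response in 96-well plates. Here, GI50 denotes the concentration required for 50% inhibition of growth.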 The source made the active and inactive calls. Rule as the data show it: active = GI50 up to about 1.1 µM and inactive = higher.
# Tests used:
# Experiment in all cases: growth of human tumour cells (NCI), 48 h
# [1] = system: NCI-H226
# [2] = system: SK-MEL-28
# [3] = system: LOX IMVI
# [4] = system: SW-620
# [5] = system: SF-539
# [6] = system: DU-145
# [7] = system: SF-295
# [8] = system: TK-10
# [9] = system: PC-3
# [10] = system: SK-OV-3
# [11] = system: UACC-257
# [12] = system: U-251
# [13] = system: HCT-116
# [14] = system: A549
# [15] = system: CCRF-CEM
# [16] = system: M14
# [17] = system: HT-29
# [18] = system: HOP-92
# [19] = system: NCI-H522
# [20] = system: BT-549
# [21] = system: UACC-62
# [22] = system: RPMI-8226
# [23] = system: SNB-75
# [24] = system: SF-268
# [25] = system: MDA-MB-435
# [26] = system: MDA-MB-231
# [27] = system: COLO 205
# [28] = system: NCI-H460
# [29] = system: HL-60
# [30] = system: T47D
# [31] = system: OVCAR-8
# [32] = system: SK-MEL-2
# [33] = system: HCT-15
# [34] = system: Malme-3M
# [35] = system: KM12
# [36] = system: SN12C
# [37] = system: OVCAR-5
# [38] = system: RXF 393
# [39] = system: OVCAR-4
# [40] = system: OVCAR-3
# [41] = system: NCI/ADR-RES
# [42] = system: A498
# [43] = system: ACHN
# [44] = system: CAKI-1
# [45] = system: MOLT-4
# [46] = system: NCI-H23
# [47] = system: EKVX
# [48] = system: MDA-N
# [49] = system: SK-MEL-5
# [50] = system: 786-0
# [51] = system: K562
# [52] = system: SNB-19
# [53] = system: UO-31
# [54] = system: SR
# [55] = system: IGROV-1
# [56] = system: Hs-578T
# [57] = system: HOP-62
# [58] = system: MCF7
# [59] = system: HCC 2998
structure (smiles),measurement,setting,value
O=C1/C(=C2/CCCN2)C(c2ccc[nH]2)=NN1c1ccccc1,GI50,[1],> 100 µM (inactive)
same,GI50,[2],> 100 µM (inactive)
same,GI50,[3],> 100 µM (inactive)
same,GI50,[4],> 100 µM (inactive)
same,GI50,[5],> 100 µM (inactive)
same,GI50,[6],> 100 µM (inactive)
same,GI50,[7],> 100 µM (inactive)
same,GI50,[8],> 100 µM (inactive)
same,GI50,[9],> 100 µM (inactive)
same,GI50,[10],> 100 µM (inactive)
same,GI50,[11],> 100 µM (inactive)
same,GI50,[12],> 100 µM (inactive)
same,GI50,[13],> 100 µM (inactive)
same,GI50,[14],> 100 µM (inactive)
same,GI50,[15],1.75 µM (inactive)
same,GI50,[16],> 100 µM (inactive)
same,GI50,[17],> 100 µM (inactive)
same,GI50,[18],> 100 µM (inactive)
same,GI50,[19],> 100 µM (inactive)
same,GI50,[20],> 100 µM (inactive)
same,GI50,[21],> 100 µM (inactive)
same,GI50,[22],> 100 µM (inactive)
same,GI50,[23],> 100 µM (inactive)
same,GI50,[24],> 100 µM (inactive)
same,GI50,[25],> 100 µM (inactive)
same,GI50,[26],> 100 µM (inactive)
same,GI50,[27],> 100 µM (inactive)
same,GI50,[28],> 100 µM (inactive)
same,GI50,[29],> 100 µM (inactive)
same,GI50,[30],> 100 µM (inactive)
same,GI50,[31],> 100 µM (inactive)
same,GI50,[32],> 100 µM (inactive)
same,GI50,[33],> 100 µM
same,GI50,[34],> 100 µM (inactive)
same,GI50,[35],> 100 µM (inactive)
same,GI50,[36],> 100 µM (inactive)
same,GI50,[37],> 100 µM (inactive)
same,GI50,[38],> 100 µM (inactive)
same,GI50,[39],> 100 µM (inactive)
same,GI50,[40],> 100 µM (inactive)
same,GI50,[41],> 100 µM (inactive)
same,GI50,[42],> 100 µM (inactive)
same,GI50,[43],> 100 µM (inactive)
same,GI50,[44],> 100 µM (inactive)
same,GI50,[45],> 100 µM (inactive)
same,GI50,[46],> 100 µM (inactive)
same,GI50,[47],> 100 µM (inactive)
same,GI50,[48],> 100 µM (inactive)
same,GI50,[49],> 100 µM (inactive)
same,GI50,[50],> 100 µM (inactive)
same,GI50,[51],> 100 µM (inactive)
same,GI50,[52],> 100 µM (inactive)
same,GI50,[53],> 100 µM (inactive)
N#Cc1c(-c2ccc(Cl)cc2)c2c([nH]c1=O)-c1ccccc1SC2,GI50,[1],38.6 µM (inactive)
same,GI50,[2],> 100 µM (inactive)
same,GI50,[3],22 µM (inactive)
same,GI50,[4],> 100 µM (inactive)
same,GI50,[5],25.6 µM (inactive)
same,GI50,[6],> 100 µM (inactive)
same,GI50,[7],28 µM (inactive)
same,GI50,[8],16.2 µM (inactive)
same,GI50,[9],42.8 µM (inactive)
same,GI50,[10],32.7 µM (inactive)
same,GI50,[11],> 100 µM (inactive)
same,GI50,[12],25.6 µM (inactive)
same,GI50,[13],35.4 µM (inactive)
same,GI50,[14],30.3 µM (inactive)
same,GI50,[15],26.3 µM (inactive)
same,GI50,[16],> 100 µM (inactive)
same,GI50,[17],59.7 µM (inactive)
same,GI50,[54],29.2 µM (inactive)
same,GI50,[55],56.9 µM (inactive)
same,GI50,[18],17.7 µM (inactive)
same,GI50,[56],67.9 µM (inactive)
same,GI50,[20],> 100 µM (inactive)
same,GI50,[21],32.7 µM (inactive)
same,GI50,[22],16.7 µM (inactive)
same,GI50,[23],27.5 µM (inactive)
same,GI50,[24],41.9 µM (inactive)
same,GI50,[25],41 µM (inactive)
same,GI50,[26],29.1 µM (inactive)
same,GI50,[27],22.3 µM (inactive)
same,GI50,[28],46.3 µM (inactive)
same,GI50,[29],21 µM (inactive)
same,GI50,[31],57.5 µM (inactive)
same,GI50,[32],52.6 µM (inactive)
same,GI50,[33],70.6 µM
same,GI50,[57],32.1 µM (inactive)
same,GI50,[34],33.1 µM (inactive)
same,GI50,[35],63.7 µM (inactive)
same,GI50,[36],54.3 µM (inactive)
same,GI50,[37],> 100 µM (inactive)
same,GI50,[38],25.2 µM (inactive)
same,GI50,[39],38.6 µM (inactive)
same,GI50,[40],26.2 µM (inactive)
same,GI50,[41],29.2 µM (inactive)
same,GI50,[58],27.5 µM (inactive)
same,GI50,[42],> 100 µM (inactive)
same,GI50,[44],47.2 µM (inactive)
same,GI50,[45],27.4 µM (inactive)
same,GI50,[46],93.3 µM (inactive)
same,GI50,[47],21.1 µM (inactive)
same,GI50,[48],77.6 µM (inactive)
same,GI50,[49],> 100 µM (inactive)
same,GI50,[50],39.8 µM (inactive)
same,GI50,[51],32.9 µM (inactive)
same,GI50,[52],91.8 µM (inactive)
same,GI50,[53],56.9 µM (inactive)
SC[C@@H]1COC[C@H](CS)S1,GI50,[2],> 100 µM (inactive)
same,GI50,[3],> 100 µM (inactive)
same,GI50,[4],> 100 µM (inactive)
same,GI50,[5],> 100 µM (inactive)
same,GI50,[6],> 100 µM (inactive)
same,GI50,[7],> 100 µM (inactive)
same,GI50,[8],> 100 µM (inactive)
same,GI50,[9],> 100 µM (inactive)
same,GI50,[10],> 100 µM (inactive)
same,GI50,[11],> 100 µM (inactive)
same,GI50,[12],> 100 µM (inactive)
same,GI50,[13],> 100 µM (inactive)
same,GI50,[14],> 100 µM (inactive)
same,GI50,[15],> 100 µM (inactive)
same,GI50,[16],> 100 µM (inactive)
same,GI50,[17],> 100 µM (inactive)
same,GI50,[54],> 100 µM (inactive)
same,GI50,[55],> 100 µM (inactive)
same,GI50,[19],> 100 µM (inactive)
same,GI50,[20],> 100 µM (inactive)
same,GI50,[21],> 100 µM (inactive)
same,GI50,[23],58.9 µM (inactive)
same,GI50,[24],> 100 µM (inactive)
same,GI50,[25],> 100 µM (inactive)
same,GI50,[59],> 100 µM (inactive)
same,GI50,[26],> 100 µM (inactive)
same,GI50,[27],> 100 µM (inactive)
same,GI50,[28],> 100 µM (inactive)
same,GI50,[29],> 100 µM (inactive)
same,GI50,[30],> 100 µM (inactive)
same,GI50,[31],> 100 µM (inactive)
same,GI50,[33],> 100 µM
same,GI50,[57],> 100 µM (inactive)
same,GI50,[35],> 100 µM (inactive)
same,GI50,[36],> 100 µM (inactive)
same,GI50,[37],> 100 µM (inactive)
same,GI50,[39],> 100 µM (inactive)
same,GI50,[40],> 100 µM (inactive)
same,GI50,[58],> 100 µM (inactive)
same,GI50,[45],> 100 µM (inactive)
same,GI50,[46],> 100 µM (inactive)
same,GI50,[47],> 100 µM (inactive)
same,GI50,[48],> 100 µM (inactive)
same,GI50,[49],> 100 µM (inactive)
same,GI50,[50],> 100 µM (inactive)
same,GI50,[51],> 100 µM (inactive)
same,GI50,[52],> 100 µM (inactive)
same,GI50,[53],> 100 µM (inactive)
CC(C)(C)C1CCC2c3c([nH]c4ccccc34)C3C(=O)N(c4cc(Br)cc(Br)c4)C(=O)C3C2C1 (stereo not drawn),GI50,[1],21.9 µM (inactive)
same,GI50,[2],13.2 µM (inactive)
same,GI50,[3],27.2 µM (inactive)
same,GI50,[4],51.2 µM (inactive)
same,GI50,[5],16.7 µM (inactive)
same,GI50,[6],21.4 µM (inactive)
same,GI50,[8],19.9 µM (inactive)
same,GI50,[9],9.95 µM (inactive)
same,GI50,[10],61.1 µM (inactive)
same,GI50,[11],> 100 µM (inactive)
same,GI50,[12],13.4 µM (inactive)
same,GI50,[13],4.34 µM (inactive)
same,GI50,[14],14.8 µM (inactive)
same,GI50,[15],5.79 µM (inactive)
same,GI50,[16],25.4 µM (inactive)
same,GI50,[17],9.89 µM (inactive)
same,GI50,[54],7.89 µM (inactive)
same,GI50,[55],70.3 µM (inactive)
same,GI50,[18],2.63 µM (inactive)
same,GI50,[19],20.9 µM (inactive)
same,GI50,[56],7 µM (inactive)
same,GI50,[20],33.9 µM (inactive)
same,GI50,[21],25.1 µM (inactive)
same,GI50,[22],36.4 µM (inactive)
same,GI50,[25],19.7 µM (inactive)
same,GI50,[59],5.05 µM (inactive)
same,GI50,[26],27 µM (inactive)
same,GI50,[27],19.6 µM (inactive)
same,GI50,[28],6.43 µM (inactive)
same,GI50,[29],2.55 µM (inactive)
same,GI50,[31],16 µM (inactive)
same,GI50,[32],26.7 µM (inactive)
same,GI50,[33],25.4 µM
same,GI50,[57],18.7 µM (inactive)
same,GI50,[34],57.9 µM (inactive)
same,GI50,[35],12.6 µM (inactive)
same,GI50,[36],6.82 µM (inactive)
same,GI50,[37],31.6 µM (inactive)
same,GI50,[39],10.1 µM (inactive)
same,GI50,[40],> 10 µM (inactive)
same,GI50,[41],14.6 µM (inactive)
same,GI50,[58],3.2 µM (inactive)
same,GI50,[42],19.7 µM (inactive)
same,GI50,[43],20 µM (inactive)
same,GI50,[44],13.7 µM (inactive)
same,GI50,[45],5.26 µM (inactive)
same,GI50,[46],15.9 µM (inactive)
same,GI50,[47],6.58 µM (inactive)
same,GI50,[48],31.9 µM (inactive)
same,GI50,[49],24.2 µM (inactive)
same,GI50,[50],6.95 µM (inactive)
same,GI50,[53],6.97 µM (inactive)

# — ChEMBL document CHEMBL1201862, “PubChem BioAssay data set” (2004)
